# Assay results taken from US20230085307A1, “PYRIDAZINONE COMPOUND AND HERBICIDE” (NISSAN CHEMICAL CORPORATION, priority 2019, published 2023).
# Tested on: late watergrass
# Assay: Test Example 1: herbicidal activity, application before weed generation under submerged conditions (Table 16, symbol A)
# Type: in vivo, late watergrass (Echinochloa oryzicola)
# Conditions: 320 g/ha applied herbicide
# Summary of the method: (§1)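 Alluvial soil was flooded to 4 cm depth, weed seeds were sown mixed and 2.5-leaf rice seedlings were transplanted. On sowing day, the compound's emulsion, diluted in water to a set dose, was applied to the water surface. Plants grew at 25–30 °C and were scored 0–5 after three weeks.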
row,SMILES,Herbicidal effect on A: late watergrass (grade 0-5)
1,C=C(C)C(=O)Oc1c(C)nn(C)c(=O)c1-c1c(-c2ccc(OC(F)F)cc2)sc2ccc(F)cc12 [2-281],5 (Herbicidal rate of 90% or more (almost completely withered))
2,Cc1nn(C)c(=O)c(-c2c(-c3ccc(OC(F)F)cc3)sc3ccc(F)cc23)c1OC(=O)COc1ccccc1 [2-284],3 (Herbicidal rate of 40% or more and less than 70%)

# Tested on: Japanese bulrush
# Assay: Test Example 1: herbicidal activity, application before weed generation under submerged conditions (Table 16, symbol B)
# Type: in vivo, Japanese bulrush (Schoenoplectus juncoides)
# Conditions: 320 g/ha applied herbicide
# Summary of the method: as §1
row,SMILES,Herbicidal effect on B: Japanese bulrush (grade 0-5)
1,C=C(C)C(=O)Oc1c(C)nn(C)c(=O)c1-c1c(-c2ccc(OC(F)F)cc2)sc2ccc(F)cc12 [2-281],5 (Herbicidal rate of 90% or more (almost completely withered))
2,Cc1nn(C)c(=O)c(-c2c(-c3ccc(OC(F)F)cc3)sc3ccc(F)cc23)c1OC(=O)COc1ccccc1 [2-284],3 (Herbicidal rate of 40% or more and less than 70%)

# Tested on: late watergrass
# Assay: Test Example 2: herbicidal activity, application during weed generation under submerged conditions (Table 17, symbol A)
# Type: in vivo, late watergrass (Echinochloa oryzicola)
# Conditions: AAH 320 g/ha; application during weed generation, submerged conditions
# Summary of the method: (§2)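 3-wk visual-criteria score after one water-surface dose. Emulsion formulation, water-diluted to set rate; applied at 1–2 leaf stage; alluvial soil, 4 cm standing water; seeds co-sown; greenhouse 25–30° C.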
row,SMILES,"herbicidal effect rating, A: late watergrass"
1,C=C(C)C(=O)Oc1c(C)nn(C)c(=O)c1-c1c(-c2ccc(OC(F)F)cc2)sc2ccc(F)cc12 [2-281],5 (Herbicidal rate of 90% or more (almost completely withered))
2,Cc1nn(C)c(=O)c(-c2c(-c3ccc(OC(F)F)cc3)sc3ccc(F)cc23)c1OC(=O)COc1ccccc1 [2-284],3 (Herbicidal rate of 40% or more and less than 70%)

# Tested on: oval-leafed pondweed
# Assay: Test Example 2: herbicidal activity, application during weed generation under submerged conditions (Table 17, symbol C)
# Type: in vivo, oval-leafed pondweed (Monochoria vaginalis)
# Conditions: AAH 320 g/ha; application during weed generation, submerged conditions
# Summary of the method: as §2
row,SMILES,"herbicidal effect rating, C: oval-leafed pondweed"
1,C=C(C)C(=O)Oc1c(C)nn(C)c(=O)c1-c1c(-c2ccc(OC(F)F)cc2)sc2ccc(F)cc12 [2-281],5 (Herbicidal rate of 90% or more (almost completely withered))
2,Cc1nn(C)c(=O)c(-c2c(-c3ccc(OC(F)F)cc3)sc3ccc(F)cc23)c1OC(=O)COc1ccccc1 [2-284],3 (Herbicidal rate of 40% or more and less than 70%)

# Tested on: barnyard grass
# Assay: Test Example 3: herbicidal effect by foliage application, Wagner pot (Table 18, symbol H)
# Type: in vivo, barnyard grass (Echinochloa crus-galli)
# Conditions: amount of applied herbicide 320 g/ha
# Summary of the method: (§3)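 Plants were sown in alluvial soil held under 0.1–0.5 cm standing water and grown 14 days in a greenhouse at 25–30 °C. An emulsifiable formulation, water-diluted to the set dose, was then sprayed onto the foliage, and effects were scored three weeks later using previously defined criteria.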
row,SMILES,herbicidal effect on H: barnyard grass
1,C=C(C)C(=O)Oc1c(C)nn(C)c(=O)c1-c1c(-c2ccc(OC(F)F)cc2)sc2ccc(F)cc12 [2-281],5 (Herbicidal rate of 90% or more (almost completely withered))
2,Cc1nn(C)c(=O)c(-c2c(-c3ccc(OC(F)F)cc3)sc3ccc(F)cc23)c1OC(=O)COc1ccccc1 [2-284],5 (Herbicidal rate of 90% or more (almost completely withered))

# Tested on: Chinese sprangletop
# Assay: Test Example 3: herbicidal effect by foliage application, Wagner pot (Table 18, symbol D)
# Type: in vivo, chinese sprangletop (Leptochloa chinensis)
# Conditions: amount of applied herbicide 320 g/ha
# Summary of the method: as §3
row,SMILES,herbicidal effect on D: Chinese sprangletop
1,C=C(C)C(=O)Oc1c(C)nn(C)c(=O)c1-c1c(-c2ccc(OC(F)F)cc2)sc2ccc(F)cc12 [2-281],3 (Herbicidal rate of 40% or more and less than 70%)
2,Cc1nn(C)c(=O)c(-c2c(-c3ccc(OC(F)F)cc3)sc3ccc(F)cc23)c1OC(=O)COc1ccccc1 [2-284],3 (Herbicidal rate of 40% or more and less than 70%)

# Tested on: rice flat sedge
# Assay: Test Example 3: herbicidal effect by foliage application, Wagner pot (Table 18, symbol E)
# Type: in vivo, rice flat sedge (Cyperus iria)
# Conditions: amount of applied herbicide 320 g/ha
# Summary of the method: as §3
row,SMILES,herbicidal effect on E: rice flat sedge
1,C=C(C)C(=O)Oc1c(C)nn(C)c(=O)c1-c1c(-c2ccc(OC(F)F)cc2)sc2ccc(F)cc12 [2-281],5 (Herbicidal rate of 90% or more (almost completely withered))
2,Cc1nn(C)c(=O)c(-c2c(-c3ccc(OC(F)F)cc3)sc3ccc(F)cc23)c1OC(=O)COc1ccccc1 [2-284],5 (Herbicidal rate of 90% or more (almost completely withered))

# Tested on: Italian ryegrass
# Assay: Test Example 4: herbicidal effect by soil treatment (Table 19, symbol K)
# Type: in vivo, Italian ryegrass (Lolium multiflorum)
# Conditions: amount of applied herbicide 320 g/ha
# Summary of the method: (§4)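 In this soil treatment, the formulated compound reached the seeds only through the soil: seeds were buried about 1.5 cm deep in sterilized diluvial soil, then the diluted emulsion was sprayed over the surface. After three weeks at 25° C. to 30° C. in a greenhouse, effects were graded on criteria from an earlier test.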
row,SMILES,herbicidal effect on K: Italian ryegrass
1,C=C(C)C(=O)Oc1c(C)nn(C)c(=O)c1-c1c(-c2ccc(OC(F)F)cc2)sc2ccc(F)cc12 [2-281],5 (Herbicidal rate of 90% or more (almost completely withered))
2,Cc1nn(C)c(=O)c(-c2c(-c3ccc(OC(F)F)cc3)sc3ccc(F)cc23)c1OC(=O)COc1ccccc1 [2-284],5 (Herbicidal rate of 90% or more (almost completely withered))

# Tested on: windgrass
# Assay: Test Example 4: herbicidal effect by soil treatment (Table 19, symbol L)
# Type: in vivo, windgrass (Apera spica-venti)
# Conditions: amount of applied herbicide 320 g/ha
# Summary of the method: as §4
row,SMILES,herbicidal effect on L: windgrass
1,C=C(C)C(=O)Oc1c(C)nn(C)c(=O)c1-c1c(-c2ccc(OC(F)F)cc2)sc2ccc(F)cc12 [2-281],3 (Herbicidal rate of 40% or more and less than 70%)
2,Cc1nn(C)c(=O)c(-c2c(-c3ccc(OC(F)F)cc3)sc3ccc(F)cc23)c1OC(=O)COc1ccccc1 [2-284],4 (Herbicidal rate of 70% or more and less than 90%)

# Tested on: redroot pigweed
# Assay: Test Example 4: herbicidal effect by soil treatment (Table 19, symbol N)
# Type: in vivo, redroot pigweed (Amaranthus retroflexus)
# Conditions: amount of applied herbicide 320 g/ha
# Summary of the method: as §4
row,SMILES,herbicidal effect on N: redroot pigweed
1,C=C(C)C(=O)Oc1c(C)nn(C)c(=O)c1-c1c(-c2ccc(OC(F)F)cc2)sc2ccc(F)cc12 [2-281],5 (Herbicidal rate of 90% or more (almost completely withered))
2,Cc1nn(C)c(=O)c(-c2c(-c3ccc(OC(F)F)cc3)sc3ccc(F)cc23)c1OC(=O)COc1ccccc1 [2-284],5 (Herbicidal rate of 90% or more (almost completely withered))

# Tested on: green foxtail
# Assay: Test Example 5: herbicidal effect by foliage application, plastic box (Table 20, symbol G)
# Type: in vivo, green foxtail (Setaria viridis)
# Conditions: foliage application, AAH 320 g/ha, evaluated three weeks after application
# Summary of the method: (§5)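 Plants were sown into sterilized diluvial soil under about 1.5 cm cover and kept in a greenhouse at 25° C. to 30° C. Fourteen days on, foliage received an even spray of the diluted emulsion. Herbicidal or crop effect was judged three weeks afterwards.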
row,SMILES,"G: green foxtail, herbicidal effect (criteria 0-5)"
1,C=C(C)C(=O)Oc1c(C)nn(C)c(=O)c1-c1c(-c2ccc(OC(F)F)cc2)sc2ccc(F)cc12 [2-281],4 (Herbicidal rate of 70% or more and less than 90%)
2,Cc1nn(C)c(=O)c(-c2c(-c3ccc(OC(F)F)cc3)sc3ccc(F)cc23)c1OC(=O)COc1ccccc1 [2-284],5 (Herbicidal rate of 90% or more (almost completely withered))

# Tested on: barnyard grass
# Assay: Test Example 5: herbicidal effect by foliage application, plastic box (Table 20, symbol H)
# Type: in vivo, barnyard grass (Echinochloa crus-galli)
# Conditions: foliage application, AAH 320 g/ha, evaluated three weeks after application
# Summary of the method: as §5
row,SMILES,"H: barnyard grass, herbicidal effect (criteria 0-5)"
1,C=C(C)C(=O)Oc1c(C)nn(C)c(=O)c1-c1c(-c2ccc(OC(F)F)cc2)sc2ccc(F)cc12 [2-281],5 (Herbicidal rate of 90% or more (almost completely withered))
2,Cc1nn(C)c(=O)c(-c2c(-c3ccc(OC(F)F)cc3)sc3ccc(F)cc23)c1OC(=O)COc1ccccc1 [2-284],5 (Herbicidal rate of 90% or more (almost completely withered))

# Tested on: wild oat
# Assay: Test Example 5: herbicidal effect by foliage application, plastic box (Table 20, symbol I)
# Type: in vivo, wild oat (Avena fatua)
# Conditions: foliage application, AAH 320 g/ha, evaluated three weeks after application
# Summary of the method: as §5
row,SMILES,"I: wild oat, herbicidal effect (criteria 0-5)"
1,C=C(C)C(=O)Oc1c(C)nn(C)c(=O)c1-c1c(-c2ccc(OC(F)F)cc2)sc2ccc(F)cc12 [2-281],4 (Herbicidal rate of 70% or more and less than 90%)
2,Cc1nn(C)c(=O)c(-c2c(-c3ccc(OC(F)F)cc3)sc3ccc(F)cc23)c1OC(=O)COc1ccccc1 [2-284],4 (Herbicidal rate of 70% or more and less than 90%)

# Tested on: blackgrass
# Assay: Test Example 5: herbicidal effect by foliage application, plastic box (Table 20, symbol J)
# Type: in vivo, blackgrass (Alopecurus myosuroides)
# Conditions: foliage application, AAH 320 g/ha, evaluated three weeks after application
# Summary of the method: as §5
row,SMILES,"J: blackgrass, herbicidal effect (criteria 0-5)"
1,C=C(C)C(=O)Oc1c(C)nn(C)c(=O)c1-c1c(-c2ccc(OC(F)F)cc2)sc2ccc(F)cc12 [2-281],4 (Herbicidal rate of 70% or more and less than 90%)
2,Cc1nn(C)c(=O)c(-c2c(-c3ccc(OC(F)F)cc3)sc3ccc(F)cc23)c1OC(=O)COc1ccccc1 [2-284],5 (Herbicidal rate of 90% or more (almost completely withered))

# Tested on: Italian ryegrass
# Assay: Test Example 5: herbicidal effect by foliage application, plastic box (Table 20, symbol K)
# Type: in vivo, Italian ryegrass (Lolium multiflorum)
# Conditions: foliage application, AAH 320 g/ha, evaluated three weeks after application
# Summary of the method: as §5
row,SMILES,"K: Italian ryegrass, herbicidal effect (criteria 0-5)"
1,C=C(C)C(=O)Oc1c(C)nn(C)c(=O)c1-c1c(-c2ccc(OC(F)F)cc2)sc2ccc(F)cc12 [2-281],5 (Herbicidal rate of 90% or more (almost completely withered))
2,Cc1nn(C)c(=O)c(-c2c(-c3ccc(OC(F)F)cc3)sc3ccc(F)cc23)c1OC(=O)COc1ccccc1 [2-284],5 (Herbicidal rate of 90% or more (almost completely withered))

# Tested on: redroot pigweed
# Assay: Test Example 5: herbicidal effect by foliage application, plastic box (Table 20, symbol N)
# Type: in vivo, redroot pigweed (Amaranthus retroflexus)
# Conditions: foliage application, AAH 320 g/ha, evaluated three weeks after application
# Summary of the method: as §5
row,SMILES,"N: redroot pigweed, herbicidal effect (criteria 0-5)"
1,C=C(C)C(=O)Oc1c(C)nn(C)c(=O)c1-c1c(-c2ccc(OC(F)F)cc2)sc2ccc(F)cc12 [2-281],5 (Herbicidal rate of 90% or more (almost completely withered))
2,Cc1nn(C)c(=O)c(-c2c(-c3ccc(OC(F)F)cc3)sc3ccc(F)cc23)c1OC(=O)COc1ccccc1 [2-284],5 (Herbicidal rate of 90% or more (almost completely withered))
